Data taken from patent US20020013306A1, “TERPYRIDINE-PLATINUM(II) COMPLEXES” (priority 1996, published 2002).
Several values for one entry are separate records, joined by “and”; a condition that tells them apart may be missing. Identical values can stand only once. Like-named read-outs stand apart in the source and are kept apart here.

Legend:
[1] = tested on: T. brucei (S427) bloodstream trypomastigotes; experiment: Trypanosoma brucei bloodstream trypomastigote culture; assay type: cell-based
T. cruzi (MHOM/BR/00/Y) = experiment: Trypanosoma cruzi in mouse peritoneal macrophages; assay type: cell-based
Procedure: Trypanosoma cruzi: […] Drug activity was determined from the % of infected macrophages in treated cultures. Nifurtimox was used as the positive control.

[2] = tested on: SKOV3 human ovarian carcinoma cell line; experiment: 96 h growth inhibition, sulforhodamine B assay, SKOV3; assay type: cell-based; details: 96 h exposure, v = variable (mean)
[3] = tested on: CH1cis^R human ovarian carcinoma cell line (cisplatin resistant); experiment: 96 h growth inhibition, sulforhodamine B assay, CH1cisR; assay type: cell-based; details: for IC50: 96 h exposure, growth inhibition, v = variable (mean); for RF resistance factor: IC50 resistant line/IC50 parent line: CH1cis^R / CH1
[4] = tested on: A2780 human ovarian carcinoma cell line; experiment: 96 h growth inhibition, sulforhodamine B assay, A2780; assay type: cell-based; details: 96 h exposure, v = variable (mean)
[5] = tested on: CH1 human ovarian carcinoma cell line; experiment: 96 h growth inhibition, sulforhodamine B assay, CH1; assay type: cell-based; details: 96 h exposure, v = variable (mean)
[6] = tested on: A2780cis^R human ovarian carcinoma cell line (cisplatin resistant); experiment: 96 h growth inhibition, sulforhodamine B assay, A2780cisR; assay type: cell-based; details: for IC50: 96 h exposure, growth inhibition, v = variable (mean); for RF resistance factor: IC50 resistant line/IC50 parent line: A2780cis^R / A2780
[7] = tested on: CH1dox^R human ovarian carcinoma cell line (doxorubicin resistant); experiment: 96 h growth inhibition, sulforhodamine B assay, CH1doxR; assay type: cell-based; details: for IC50: 96 h exposure, growth inhibition; for RF resistance factor: IC50 resistant line/IC50 parent line: CH1dox^R / CH1
[8] = tested on: P falciparum (chloroquin resistant strain K1); experiment: In vitro antimalarial activity, chloroquine resistant K1; details: for % Inhibition, MQ, K1 P. falciparum: duplicates
Procedure: Plasmodium falciparum: P falciparum (chloroquin resistant strain K1) was cultured at 37° C. in a 5% suspension of infected so erythrocytes (group A Rh^+) in complete medium as described by E L Elueze, S L Croft and D C Warhurst, J Antimicrobial Chemotherapy, 1996, 37, 511-518. The in vitro antimalarial activity of compounds were likewise determined according to their protocol. Mefloquin was used as the positive control.”

Compound	% Inhibition, Trypanosoma brucei ([1]; 0.1 μM)	% Inhibition, Trypanosoma brucei ([1]; 0.3 μM)	% Inhibition, Trypanosoma brucei ([1]; 1 μM)	% Inhibition, Trypanosoma brucei ([1]; 3 μM)	% Inhibition, Trypanosoma brucei ([1]; 10 μM)	% Inhibition, Trypanosoma brucei ([1]; 30 μM)	IC50 [2]	IC50 [3]	RF resistance factor: IC50 resistant line/IC50 parent line [3]	IC50 [4]	IC50 [5]	IC50 [6]	IC50 [7]	RF resistance factor: IC50 resistant line/IC50 parent line [7]	RF resistance factor: IC50 resistant line/IC50 parent line [6]	also measured
Ammonio 4′-chloro-2,2′:6′,2″-terpyridine platinum II tetrafluoroborate [Compound I12]	0%	0%	100%	100%	100%	100%										
F[B-](F)(F)F.F[B-](F)(F)F.Fc1ccc[n+]([Pt-2]23[n+]4ccccc4-c4cccc([n+]42)-c2cccc[n+]23)c1 [Compound A5]			100%	100%	100%	100%	> 100 µM	17 µM	1	19.5 µM	17 µM	> 100 µM	6.1 µM	0.3		% Inhibition, Trypanosoma cruzi (T. cruzi (MHOM/BR/00/Y); 1 μM): 2.0%; % Inhibition, Trypanosoma cruzi (T. cruzi (MHOM/BR/00/Y); 3 μM): 6.5%; % Inhibition, Trypanosoma cruzi (T. cruzi (MHOM/BR/00/Y); 10 μM): 43.8%
4,4′-Vinylidenedipyridine bis[4′-chloro-2,2′:6′,2″-terpyridine platinum II]tetrafluoroborate [Compound I14]							15 µM	17 µM	1.1		15 µM	19 µM	7.8 µM	0.5		
4,4′-Vinylidenedipyridine bis[4′-(4-bromophenyl)-2,2′:6′,2″-terpyridine platinum II]tetrafluoroborate [Compound Q14]							4.7 µM	2.8 µM	1.4		2 µM	2.3 µM	1.9 µM	0.9		
N.N.[Cl][Pt][Cl] [cisplatin, cis[Pt(NH3)2Cl2], reference compound]							2.25 µM	1.2 µM		0.53 µM	0.4 µM	8.8 µM				
Brc1ccc(-c2cc(-c3ccccn3)nc(-c3ccccn3)c2)cc1.F[B-](F)(F)F.F[B-](F)(F)F.N.[Pt+2] [Compound Q12, Ammonio 4′-(4-bromophenyl)-2,2′:6′,2″-terpyridine platinum II tetrafluoroborate]	100%	100%	100%	100%	100%	100%										
4-Picoline 4′-amino-2,2′:6′,2″-terpyridine platinum II tetrafluoroborate [X]	0%	0%	100%	100%	100%	100%	25 µM	16.5 µM	1.1	25 µM	15.1 µM	21 µM	17 µM	1.1	0.8	
CC1CS(=O)(=O)CCN1/N=C/c1ccc([N+](=O)[O-])o1 (centres unmarked) [nifurtimox, Nifurtimox, reference compound]																EC50 (T. cruzi (MHOM/BR/00/Y); Trypanosoma cruzi, Peritoneal macrophage, read-out: ED50 against Trypanosoma cruzi): 3 µM
OC(c1cc(C(F)(F)F)nc2c(C(F)(F)F)cccc12)C1CCCCN1 (centres unmarked) [MQ, Mefloquin, reference compound]																% Inhibition, MQ, K1 P. falciparum ([8]; Concn. MQ 0.015625 μM): 0%; % Inhibition, MQ, K1 P. falciparum ([8]; Concn. MQ 0.0626 μM): 77.5% and 56.9%; % Inhibition, MQ, K1 P. falciparum ([8]; Concn. MQ 0.5 μM): 96.4% and 95.3%; % Inhibition, MQ, K1 P. falciparum ([8]; Concn. MQ 1 μM): 94.9% and 91.6%; % Inhibition, MQ, K1 P. falciparum ([8]; Concn. MQ 2 μM): 96.3% and 94.7%; % Inhibition, MQ, K1 P. falciparum ([8]; Concn. MQ 025 μM): 98.0% and 97.2%; % Inhibition, MQ, K1 P. falciparum ([8]; Concn. MQ 003125 μM): 0.5% and 0%; % Inhibition, MQ, K1 P. falciparum ([8]; Concn. MQ): 93.6% and 94.8%; IC50 ([8]; read-out: IC50 (avg), K1 P. falciparum, average of duplicates): 0.06 µM; IC50 ([8]; read-out: IC50, K1 P. falciparum, each duplicate (1),(2)): 0.05 µM and 0.06 µM
Cc1ccncc1.F[B-](F)(F)F.F[B-](F)(F)F.OCCNc1cc(-c2ccccn2)nc(-c2ccccn2)c1.[Pt+2] [U, (4-Picoline)(4′-(N-2-Hydroxyethyl)amino-2,2′:6′,2″-Terpyridine) Platinum (II) Tetrafluoroborate]	0%	0%	0%	68.4%	100%	100%										% Inhibition, Trypanosoma cruzi (T. cruzi (MHOM/BR/00/Y); 1 μM): 0%; % Inhibition, Trypanosoma cruzi (T. cruzi (MHOM/BR/00/Y); 3 μM): 0%; % Inhibition, Trypanosoma cruzi (T. cruzi (MHOM/BR/00/Y); 10 μM): 0%; % Inhibition, Trypanosoma cruzi (T. cruzi (MHOM/BR/00/Y); 30 μM): 18.0%
Brc1cc[n+]([Pt-2]23[n+]4ccccc4-c4cccc([n+]42)-c2cccc[n+]23)cc1.F[B-](F)(F)F.F[B-](F)(F)F [Compound A1]	100%	100%	100%	100%	100%	100%	9.2 µM	2.1 µM	1.0	5.8 µM	2.1 µM	6.7 µM	0.85 µM	0.41	1.16	% Inhibition, Trypanosoma brucei ([1]; 0.03 μM): 100%
F[B-](F)(F)F.F[B-](F)(F)F.OCc1cc[n+]([Pt-2]23[n+]4ccccc4-c4cccc([n+]42)-c2cccc[n+]23)cc1 [Compound A9]	32.5%	100%	100%	100%	100%	100%	17 µM	12.5 µM	0.9	40 µM	14 µM	92 µM	5 µM	0.3	2.3	
4,4′-Vinylidenedipyridine bis[2,2′:6′,2″-terpyridine platinum II] tetrafluoroborate [Compound A14]							1.3 µM	0.63 µM	0.46	1.6 µM	1.35 µM	2.4 µM	5.1 µM	3.8	1.5	
